For 19 compounds, IC50 and inhibition results are on record in ChEMBL document CHEMBL2375301, “Design and synthesis of novel 4-benzothiazole amino quinazolines Dasatinib derivatives as potential anti-tumor agents” (Eur J Med Chem, 2013).

The subject of one assay is NCI-H661. Briefly: Cytotoxicity against human NCI-H661 cells after 72 hrs by WST-8 assay. In kind it is functional, cell-based. The conditions noted are these: NCI-H661, 72 h. A general note: Tetrazolium assays rely on reduction of a dye to a coloured formazan, in cell work by metabolically active cells.
Another assay has as its system U-937. The assay is described as follows: Cytotoxicity against human U937 cells after 72 hrs by WST-8 assay. The following applies: U-937, 72 h. Format: functional, cell-based.
Another assay has as its system A549. The assay is described as follows: Cytotoxicity against human A549 cells after 72 hrs by WST-8 assay. In kind it is functional, cell-based. The following applies: A549, 72 h.
A further assay concerns K562. The assay is described as follows: Cytotoxicity against human K562 cells after 72 hrs by WST-8 assay. Format: functional, cell-based. The following applies: K562, 72 h.
The next assay has as its system HCT-116. Briefly: Cytotoxicity against human HCT116 cells after 72 hrs by WST-8 assay. In kind it is functional, cell-based. The following applies: HCT-116, 72 h.
The subject of a further assay is DLD-1. The assay is described as follows: Cytotoxicity against human DLD1 cells after 72 hrs by WST-8 assay. Format: functional, cell-based. The conditions noted are these: DLD-1, 72 h.
Assay [1] addresses Tyrosine-protein kinase ABL1 (Homo sapiens) (UniProt P00519). The conditions noted are these: at 10 µM.
Description: Inhibition of human recombinant ABL at 10 uM relative to control
Assay [2] deals with Proto-oncogene tyrosine-protein kinase Src (Homo sapiens) (UniProt P12931). The following applies: at 10 µM.
Sequence of Proto-oncogene tyrosine-protein kinase Src (Homo sapiens) (P12931 2-536 limits assumed): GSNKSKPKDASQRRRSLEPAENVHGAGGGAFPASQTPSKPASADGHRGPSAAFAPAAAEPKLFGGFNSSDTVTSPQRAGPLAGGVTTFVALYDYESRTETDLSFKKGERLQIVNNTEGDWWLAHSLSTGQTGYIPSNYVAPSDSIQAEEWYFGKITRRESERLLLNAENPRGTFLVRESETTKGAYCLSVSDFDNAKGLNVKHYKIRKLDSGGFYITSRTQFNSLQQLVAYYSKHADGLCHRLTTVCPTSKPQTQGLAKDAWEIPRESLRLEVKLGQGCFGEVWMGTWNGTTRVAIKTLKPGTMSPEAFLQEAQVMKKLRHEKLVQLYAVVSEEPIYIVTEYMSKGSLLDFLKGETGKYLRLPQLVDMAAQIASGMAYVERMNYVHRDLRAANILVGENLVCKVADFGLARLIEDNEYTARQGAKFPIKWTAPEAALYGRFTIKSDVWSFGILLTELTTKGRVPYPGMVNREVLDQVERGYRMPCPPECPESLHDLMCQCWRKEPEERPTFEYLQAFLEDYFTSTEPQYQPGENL
Description: Inhibition of human recombinant SRC at 10 uM relative to control
In assay [3] the target is Epidermal growth factor receptor (Homo sapiens) (UniProt P00533). The following applies: at 10 µM.
Sequence of Epidermal growth factor receptor (Homo sapiens) (P00533 whole entry): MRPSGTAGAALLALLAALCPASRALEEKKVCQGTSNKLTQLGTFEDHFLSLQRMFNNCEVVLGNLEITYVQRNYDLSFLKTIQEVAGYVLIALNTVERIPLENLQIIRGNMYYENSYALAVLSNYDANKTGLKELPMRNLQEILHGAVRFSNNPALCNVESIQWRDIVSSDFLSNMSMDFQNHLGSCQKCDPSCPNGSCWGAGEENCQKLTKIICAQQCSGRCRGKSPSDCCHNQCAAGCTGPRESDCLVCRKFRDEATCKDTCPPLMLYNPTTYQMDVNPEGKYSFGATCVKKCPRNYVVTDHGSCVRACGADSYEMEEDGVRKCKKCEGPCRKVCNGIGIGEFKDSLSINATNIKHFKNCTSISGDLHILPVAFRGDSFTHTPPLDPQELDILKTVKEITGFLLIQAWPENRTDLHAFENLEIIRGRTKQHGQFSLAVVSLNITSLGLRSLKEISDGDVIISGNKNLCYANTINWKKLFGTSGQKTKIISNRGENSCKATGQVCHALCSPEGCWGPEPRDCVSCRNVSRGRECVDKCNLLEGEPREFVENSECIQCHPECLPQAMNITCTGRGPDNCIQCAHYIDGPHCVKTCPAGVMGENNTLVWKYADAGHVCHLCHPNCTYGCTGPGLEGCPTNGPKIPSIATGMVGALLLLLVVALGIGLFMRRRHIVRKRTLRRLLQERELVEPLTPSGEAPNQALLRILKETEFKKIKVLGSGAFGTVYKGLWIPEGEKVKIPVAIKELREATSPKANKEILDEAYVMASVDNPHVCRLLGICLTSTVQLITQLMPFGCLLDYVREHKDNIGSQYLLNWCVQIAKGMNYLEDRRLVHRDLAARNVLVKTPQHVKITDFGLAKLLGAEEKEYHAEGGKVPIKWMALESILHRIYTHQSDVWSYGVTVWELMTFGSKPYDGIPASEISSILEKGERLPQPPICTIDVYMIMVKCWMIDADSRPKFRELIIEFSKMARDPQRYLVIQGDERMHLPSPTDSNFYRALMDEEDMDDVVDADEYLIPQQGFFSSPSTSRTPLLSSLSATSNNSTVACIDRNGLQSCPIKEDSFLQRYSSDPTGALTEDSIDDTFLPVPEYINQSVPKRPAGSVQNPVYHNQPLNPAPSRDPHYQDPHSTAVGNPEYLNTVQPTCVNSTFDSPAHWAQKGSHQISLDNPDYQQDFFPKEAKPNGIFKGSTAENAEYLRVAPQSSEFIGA
Description: Inhibition of EGFR (unknown origin) at 10 uM relative to control

Sequence of Tyrosine-protein kinase ABL1 (Homo sapiens) (P00519 whole entry): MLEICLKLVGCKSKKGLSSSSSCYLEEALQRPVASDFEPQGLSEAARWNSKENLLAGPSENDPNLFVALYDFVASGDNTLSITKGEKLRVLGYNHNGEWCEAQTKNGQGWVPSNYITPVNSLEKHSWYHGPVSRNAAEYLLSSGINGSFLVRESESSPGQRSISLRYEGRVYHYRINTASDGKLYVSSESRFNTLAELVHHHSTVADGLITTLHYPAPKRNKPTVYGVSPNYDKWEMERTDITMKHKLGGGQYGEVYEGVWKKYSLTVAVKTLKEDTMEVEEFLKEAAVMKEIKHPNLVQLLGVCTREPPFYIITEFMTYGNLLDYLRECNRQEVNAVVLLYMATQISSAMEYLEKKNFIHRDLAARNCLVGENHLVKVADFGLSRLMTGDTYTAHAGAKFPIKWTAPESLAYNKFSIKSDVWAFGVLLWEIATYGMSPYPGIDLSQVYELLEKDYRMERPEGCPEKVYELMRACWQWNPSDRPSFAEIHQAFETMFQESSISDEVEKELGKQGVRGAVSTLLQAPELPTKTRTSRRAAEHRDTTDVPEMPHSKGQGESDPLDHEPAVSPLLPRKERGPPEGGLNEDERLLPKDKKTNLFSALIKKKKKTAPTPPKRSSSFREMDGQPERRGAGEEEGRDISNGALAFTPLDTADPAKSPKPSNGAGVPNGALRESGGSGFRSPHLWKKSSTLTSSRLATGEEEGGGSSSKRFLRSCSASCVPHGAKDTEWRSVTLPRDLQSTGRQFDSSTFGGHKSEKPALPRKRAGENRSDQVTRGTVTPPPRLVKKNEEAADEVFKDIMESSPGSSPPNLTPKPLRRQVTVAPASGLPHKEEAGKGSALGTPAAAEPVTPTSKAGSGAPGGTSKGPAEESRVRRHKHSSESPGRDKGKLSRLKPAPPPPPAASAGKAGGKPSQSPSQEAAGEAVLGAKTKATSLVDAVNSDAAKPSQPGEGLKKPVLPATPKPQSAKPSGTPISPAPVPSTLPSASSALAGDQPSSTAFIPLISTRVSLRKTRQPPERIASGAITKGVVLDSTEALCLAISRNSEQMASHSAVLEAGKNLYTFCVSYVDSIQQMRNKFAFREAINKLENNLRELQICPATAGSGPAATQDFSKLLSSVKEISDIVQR

What is called IC50 is the concentration at which inhibition is half-maximal. As usually defined, the inhibition is how much of the control response was suppressed. Read a high inhibition as a response far below the control. Turning to `COc1cc2c(Nc3nc4ccc(C(=O)Nc5c(C)cc(C)cc5C)cc4s3)ncnc2cc1OCCCN1CCOCC1`, the IC50 in the assay on NCI-H661 stood at 18.4 µM; in the assay on U-937 it was 24.2 µM; in the assay with A549, 16.3 µM; in the assay on K562, 20 µM; in the assay with HCT-116, 5.6 µM; in the assay on DLD-1 it was 5.8 µM. In addition, the inhibition in [1] came to 76.5%; in assay [2], 80.6%; in [3], 45.1%.
Consider `COc1cc2c(Nc3nc4ccc(C(=O)Nc5c(C)cccc5C)cc4s3)ncnc2cc1OCCCN1CCC(C)CC1`, for which the IC50 is 72.3 µM in the assay on NCI-H661; 11.2 µM in the assay on U-937; 89.7 µM with A549; 15.8 µM in the assay on K562; more than 100 µM in the assay with HCT-116; more than 100 µM in the assay on DLD-1. For the same compound, the inhibition stood at 54.2% in assay [1], 56.5% in [2] and 13.3% in assay [3].
As for `COc1cc2c(Nc3nc4ccc(C(=O)Nc5c(C)cc(C)cc5C)cc4s3)ncnc2cc1OCCCN1CCCCC1`, the IC50 in the assay with NCI-H661 worked out at 10 µM; in the assay on U-937, 12.2 µM; in the assay with A549 it was 10.3 µM; in the assay on K562 it was 9.3 µM; in the assay on HCT-116, 16.9 µM; with DLD-1, 24.5 µM. Besides, the inhibition worked out at 81.6% in assay [1], 69.7% in assay [2] and 37.9% in [3].
With `COc1cc2c(Nc3nc4ccc(C(=O)Nc5c(C)cccc5C)cc4s3)ncnc2cc1OCCCN1CCCC1`, the IC50 is more than 100 µM in the assay on NCI-H661; 18.9 µM in the assay on U-937; 83.8 µM in the assay on A549; 15.7 µM in the assay with K562; more than 100 µM with HCT-116; more than 100 µM in the assay with DLD-1. Moreover, the inhibition in assay [1] came to 34.3%; in [2], 39.9%; in [3], 21.2%.
As to `COc1cc2c(Nc3nc4ccc(C(=O)Nc5c(C)cccc5C)cc4s3)ncnc2cc1OCCCN1CCCCC1`, the IC50 is more than 100 µM with NCI-H661; 14.7 µM in the assay with U-937; more than 100 µM in the assay with A549; 13.7 µM in the assay on K562; more than 100 µM with HCT-116; more than 100 µM in the assay with DLD-1. The results for the inhibition in assay [1], in assay [2] and in assay [3] were 39%, 43.4% and 17.3%, respectively.
As to `COc1cc2c(Nc3nc4ccc(C(=O)Nc5c(C)cccc5Cl)cc4s3)ncnc2cc1OCCCN1CCCCC1`, the IC50 is 13.8 µM in the assay on NCI-H661; 8.6 µM in the assay on U-937; 12.8 µM in the assay with A549; 12.5 µM in the assay on K562; 23.4 µM with HCT-116; 14.7 µM with DLD-1. In addition, the inhibition turned out to be 49.9% in assay [1], 83.3% in assay [2] and 28.7% in assay [3].
On to `COc1cc2c(Nc3nc4ccc(C(=O)Nc5c(C)cc(C)cc5C)cc4s3)ncnc2cc1OCCCN1CCCCC1C` (configuration not stated), for which the IC50 with NCI-H661 amounted to 8.8 µM; in the assay on U-937 it was 3.6 µM; with A549, 5.8 µM; with K562, 3.5 µM; with HCT-116, 5.6 µM; with DLD-1, 5.7 µM. Also, the inhibition was found to be 89.2% in [2] and 65.8% in [3].
`COc1cc2c(Nc3nc4ccc(C(=O)Nc5c(C)cccc5C)cc4s3)ncnc2cc1OCCCN1CCOCC1`: the IC50 is more than 100 µM in the assay on NCI-H661; 19.2 µM in the assay on U-937; more than 100 µM in the assay on A549; more than 100 µM in the assay on K562; more than 100 µM with HCT-116; more than 100 µM in the assay with DLD-1. Moreover, the inhibition stood at 41.7% in [1], 28.7% in assay [2] and 9.9% in assay [3].
Regarding `COc1cc2c(Nc3nc4ccc(C(=O)Nc5c(C)cccc5Cl)cc4s3)ncnc2cc1OCCCN1CCOCC1`, the IC50 in the assay with NCI-H661 is more than 100 µM; with U-937, 22.6 µM; in the assay with A549, 75.2 µM; in the assay on K562, 16.4 µM; with HCT-116 it was more than 100 µM; in the assay on DLD-1, more than 100 µM. Also, the figures for the inhibition in assay [1], in assay [2] and in [3] were 43.7%, 34.3% and 10.4%, respectively.
As to `COc1cc2c(Nc3nc4ccc(C(=O)Nc5c(C)cccc5C)cc4s3)ncnc2cc1OCCCN1CCCCC1C` (configuration not stated), the IC50 is 84.4 µM in the assay with NCI-H661; 10.8 µM in the assay on U-937; 75.7 µM in the assay on A549; 12.3 µM with K562; more than 100 µM in the assay on HCT-116; more than 100 µM in the assay with DLD-1. In addition, the inhibition in assay [1] turned out to be 49.2%; in assay [2] it was 49%; in assay [3], 25.4%.
Regarding `COc1cc2c(Nc3nc4ccc(C(=O)Nc5c(C)cccc5Cl)cc4s3)ncnc2cc1OCCCN1CCC(C)CC1`, the IC50 in the assay with NCI-H661 amounted to 7.9 µM; in the assay on U-937 it was 9.2 µM; in the assay with A549, 9.7 µM; in the assay on K562 it was 8.3 µM; in the assay on HCT-116 it was 9.1 µM; in the assay with DLD-1, 11.3 µM. In addition, the inhibition in assay [1] turned out to be 56.2%; in assay [2], 67.4%; in assay [3] it was 23.7%.
On to `CCN(CC)CCCOc1cc2ncnc(Nc3nc4ccc(C(=O)Nc5c(C)cccc5Cl)cc4s3)c2cc1OC`, for which the IC50 in the assay with NCI-H661 is 11.2 µM; in the assay on U-937 it was 7.3 µM; with A549, 10.6 µM; in the assay on K562, 9.6 µM; in the assay on HCT-116 it was 13.2 µM; with DLD-1, 11.7 µM. In addition, the inhibition in assay [1] was found to be 67.1%; in assay [2], 68.2%; in [3] it was 46.8%.
As to `COc1cc2c(Nc3nc4ccc(C(=O)Nc5c(C)cc(C)cc5C)cc4s3)ncnc2cc1OCCCN1CCC(C)CC1`, the IC50 came out at 7.7 µM with NCI-H661; 5.6 µM with U-937; 5.4 µM in the assay with A549; 5.9 µM with K562; 6.9 µM in the assay on HCT-116; 7 µM with DLD-1. Also, the inhibition in assay [1] stood at 68.2%; in [2] it was 78.6%; in assay [3], 36.3%.
As for `Cc1nc(Nc2ncc(C(=O)Nc3c(C)cccc3Cl)s2)cc(N2CCN(CCO)CC2)n1` [DASATINIB], the IC50 in the assay with NCI-H661 came to 7.8 µM; with U-937, 12.2 µM; in the assay with A549, 8.2 µM; with K562 it was 11.9 µM; in the assay with HCT-116, 5.3 µM; in the assay with DLD-1 it was 4.6 µM.
Regarding `CCN(CC)CCCOc1cc2ncnc(Nc3nc4ccc(C(=O)Nc5c(C)cccc5C)cc4s3)c2cc1OC`, the IC50 is 66.5 µM in the assay on NCI-H661; 23.7 µM in the assay with U-937; more than 100 µM in the assay on A549; 28.4 µM in the assay on K562; more than 100 µM with HCT-116; more than 100 µM in the assay with DLD-1. For the same compound, the inhibition stood at 50% in assay [1], 53.6% in assay [2] and 10.5% in assay [3].
As to `COc1cc2c(Nc3nc4ccc(C(=O)Nc5c(C)cccc5Cl)cc4s3)ncnc2cc1OCCCN1CCCCC1C` (configuration not stated), the IC50 in the assay with NCI-H661 amounted to 5.3 µM; in the assay on U-937, 7 µM; in the assay on A549, 6.7 µM; with K562 it was 6.8 µM; in the assay with HCT-116, 7.2 µM; in the assay on DLD-1, 6.7 µM. Moreover, the inhibition in [1] amounted to 71.1%; in [2], 78.9%; in assay [3], 53.6%.
On to `COc1cc2c(Nc3nc4ccc(C(=O)Nc5c(C)cccc5Cl)cc4s3)ncnc2cc1OCCCN1CCCC1`, for which the IC50 in the assay on NCI-H661 came out at 45.5 µM; in the assay with U-937 it was 19.9 µM; with A549, 38.6 µM; with K562, 13.3 µM; with HCT-116, 63.8 µM; in the assay with DLD-1 it was 60.7 µM. In addition, the inhibition in assay [1] was 78.7%; in assay [2] it was 55.7%; in assay [3] it was 15.6%.
Turning to `COc1cc2c(Nc3nc4ccc(C(=O)Nc5c(C)cc(C)cc5C)cc4s3)ncnc2cc1OCCCN1CCCC1`, the IC50 with NCI-H661 came out at 9.6 µM; in the assay with U-937, 4.6 µM; with A549, 8.9 µM; in the assay on K562 it was 4.3 µM; in the assay with HCT-116, 5.8 µM; in the assay on DLD-1, 5.9 µM. For the same compound, the figures for the inhibition in assay [1], in assay [2] and in [3] were 82.3%, 91.8% and 48.7%, respectively.
With `CCN(CC)CCCOc1cc2ncnc(Nc3nc4ccc(C(=O)Nc5c(C)cc(C)cc5C)cc4s3)c2cc1OC`, the IC50 amounted to 7.3 µM in the assay with NCI-H661; 4.3 µM with U-937; 5.7 µM with A549; 6.8 µM in the assay with K562; 7.5 µM in the assay with HCT-116; 6.8 µM in the assay on DLD-1. The values for the inhibition in assay [1], in [2] and in assay [3] were 76.3%, 65.3% and 25.4%, respectively.
